Laboratory results from PubChem BioAssay AID2060882 (Molecular Pharmacology Branch, DTP, NCI, 2025).

System: 898857-211-R-J1-PDC complex spheroids, growth % test/control
Assay: Anticancer human tumor 898857-211-R-J1-PDC patient-derived melanoma cell line growth inhibition [RAS]
Settings: for IC50: curve of first compound; for viability, T/C: stronger effect = lower value
Description: RAS pathway inhibitors in Combinations in Complex Spheroids
A high-throughput screen of multi-cell type tumor spheroids was designed to identify active combinations of RAS pathway inhibitors and targeted small molecules. Complex spheroids include a stromal component modeled by human endothelial cells (HUVEC) and fibroblasts modeled by human mesenchymal stem cells (MSCs). The concentration ranges selected for each drug and investigational agent were based upon clinically achievable concentrations if the clinical Cmax of the agent was known.
Compounds. The drugs and investigational agents: abemaciclib (NSC768073), cobimetinib (NSC768068), divarasib (GDC6063, NSC841802), docetaxel (NSC628503), GDC-1971 (RLY-1971, NSC841576), gemcitabine (NSC613327), inavolisib (NSC800729), ipatasertib (NSC767898), KB-0742 (NSC834161), MRTX-1133 (NSC836407), osimertinib (NSC779217), RMC-4630 (NSC839698), RMC-6236 (NSC851965), RMC-6291 (NSC852671), Ro-3306 (NSC812927), sapanisertib (NSC764658), SN-38 (NSC673596), staurosporine (NSC755774), SY5609 (NSC837396), and tovorafenib (DAY101, NSC766906), were obtained from the National Cancer Institute (NCI) Developmental Therapeutics Program Chemical Repository. The FDA-approved anticancer drug set is available from the NCI Developmental Therapeutics Program. […] The stock solutions were prepared in dimethyl sulfoxide (DMSO, Sigma-Aldrich, St. Louis, MO, cat. D2650) at 800-fold the tested concentration and stored at -70 degrees C prior to their use. All drugs and investigational agents were tested over a range starting from a high concentration at or near the clinical Cmax and decreasing in half-log increments. If the clinical Cmax for an agent had not been determined, the highest concentration tested was 10 microM.
Cell Culture. All cells were maintained in an incubator at 37 degrees C and 5% CO2 with 95% humidity. The PDC lines were cultured according to standard operating procedures established by the NCI PDMR. All PDCs were thawed and cultured in Matrigel-coated flasks prepared with a working solution of 1X Ham's F-12 nutrient mix, without supplementation (Invitrogen, Waltham, MA, cat. 11765054), 100 U/mL penicillin-streptomycin (Invitrogen, cat. 15140122), and 2.5% Matrigel (Corning Inc., Corning, NY, cat. 354248) for the first three passages. The 362531-283-R-J2-PDC and 782815-120-R-J1-PDC lines were cultured in 6C/Colon 1B media, which includes advanced DMEM/F-12 (Thermo Fisher Scientific, cat. 12634028), 10 mM HEPES (Thermo Fisher Scientific, cat. 15630080), 1X GlutaMAX supplement (Thermo Fisher Scientific, cat. 35050061), 0.1 mg/mL primocin (InvivoGen, San Diego, CA, cat. ant-pm-2), 10% defined fetal bovine serum, heat inactivated (HyClone Laboratories Inc., Logan, UT, cat. SH30070.03HI), 50% L-WRN conditioned media (ATCC, cat. CRL-3276), 1.25 mM N-Acetyl-L-cysteine (Sigma-Aldrich, cat. A9165), 10 mM nicotinamide (Sigma-Aldrich, cat. N0636), 1X B-27 supplement (Thermo Fisher Scientific, cat. 17504044), 1X N-2 supplement (Thermo Fisher Scientific, cat. 17502048), 50 ng/mL human EGF (Thermo Fisher Scientific, cat. PHG0311), and 10 microM Y-27632 dihydrochloride (Tocris Bioscience, cat. 1254). The K12877-001-R-J1-PDC line was cultured in 6I media, which includes all 6C/Colon 1B media plus 10 ng/mL human FGF-10 (PeproTech, cat. 100-26), 1 ng/mL human FGF-2 (PeproTech, cat. 100-18B), 1 µM prostaglandin E2 (Tocris Bioscience, cat. 2296), […] hydrocortisone (Sigma-Aldrich, cat. H4001), and […] bovine insulin (Sigma-Aldrich, cat. I6634). The K86415-001-R-J1-PDC line was cultured in 6D media, which includes all 6C/Colon 1B media components minus the L-WRN conditioned media. The 485176-168-R4-J1-PDC was cultured in PANC media, which includes all 6C/Colon 1B media plus 100 ng/mL human FGF-10 (PeproTech, cat. 100-26), 500 nM SB-431542 (Selleckchem, cat. S1067), and 10 nM gastrin (Tocris Bioscience, cat. 3006). […]

[1] = second compound 0.0316 µM, first compound 0.0316 µM
[2] = second compound 0.0316 µM, first compound 0.1 µM
[3] = second compound 0.1 µM, first compound 0.0316 µM
[4] = second compound 0.1 µM, first compound 0.1 µM
[5] = second compound 0.316 µM, first compound 0.0316 µM
[6] = second compound 0.316 µM, first compound 0.1 µM
[7] = second compound 1 µM, first compound 0.0316 µM
[8] = second compound 1 µM, first compound 0.1 µM
[9] = second compound 3.16 µM, first compound 0.0316 µM
[10] = second compound 3.16 µM, first compound 0.1 µM
[11] = second compound 10 µM, first compound 0.0316 µM
[12] = second compound 10 µM, first compound 0.1 µM
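Also: spheroids exposed to compound for seven days before readout.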
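For viability, T/C in this document: 100% = DMSO vehicle control wells.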

Molecule `CC(C)n1nc(-c2ccc3oc(N)nc3c2)c2c(N)ncnc21` + C#Cc1c(F)ccc2cc(O)cc(-c3ncc4c(N5CC6CCC(C5)N6)nc(OCC56CCCN5CC(F)C6)nc4c3F)c12 has an IC50 (second compound 0.0316 µM) of 32.6 nM, an IC50 (second compound 0.1 µM) of 38.2 nM and an IC50 (second compound 0.316 µM) of 37.7 nM. It also gave an IC50 (second compound 1 µM) of 37.3 nM, an IC50 (second compound 3.16 µM) of 39.6 nM and an IC50 (second compound 10 µM) of 1.06 nM. The viability, T/C (second compound 0.0316 µM, first compound 0.000316 µM) was 108%, the viability, T/C (second compound 0.0316 µM, first compound 0.001 µM) was 92.3% and the viability, T/C (second compound 0.0316 µM, first compound 0.00316 µM) was 101%. The viability, T/C (second compound 0.0316 µM, first compound 0.01 µM) was 81.8%, the viability, T/C [1] was 50.9% and the viability, T/C [2] was 24%. It also gave a viability, T/C (second compound 0.1 µM, first compound 0.000316 µM) of 115%, a viability, T/C (second compound 0.1 µM, first compound 0.001 µM) of 99.8% and a viability, T/C (second compound 0.1 µM, first compound 0.00316 µM) of 100%. For the same molecule, the viability, T/C (second compound 0.1 µM, first compound 0.01 µM) was 79.5%, the viability, T/C [3] was 54.4% and the viability, T/C [4] was 24.5%. It also gave a viability, T/C (second compound 0.316 µM, first compound 0.000316 µM) of 112%, a viability, T/C (second compound 0.316 µM, first compound 0.001 µM) of 113% and a viability, T/C (second compound 0.316 µM, first compound 0.00316 µM) of 99.2%. The viability, T/C (second compound 0.316 µM, first compound 0.01 µM) was 78.9%, the viability, T/C [5] was 55.6% and the viability, T/C [6] was 26.6%. The viability, T/C (second compound 1 µM, first compound 0.000316 µM) was 110%, the viability, T/C (second compound 1 µM, first compound 0.001 µM) was 103% and the viability, T/C (second compound 1 µM, first compound 0.00316 µM) was 107%. For the same molecule, the viability, T/C (second compound 1 µM, first compound 0.01 µM) was 81.4%, the viability, T/C [7] was 55.8% and the viability, T/C [8] was 23.5%. It also gave a viability, T/C (second compound 3.16 µM, first compound 0.000316 µM) of 122%, a viability, T/C (second compound 3.16 µM, first compound 0.001 µM) of 114% and a viability, T/C (second compound 3.16 µM, first compound 0.00316 µM) of 102%. It also gave a viability, T/C (second compound 3.16 µM, first compound 0.01 µM) of 84.4%, a viability, T/C [9] of 55.8% and a viability, T/C [10] of 23.8%. For the same molecule, the viability, T/C (second compound 10 µM, first compound 0.000316 µM) was 57.5%, the viability, T/C (second compound 10 µM, first compound 0.001 µM) was 47.7% and the viability, T/C (second compound 10 µM, first compound 0.00316 µM) was 46.7%. For the same molecule, the viability, T/C (second compound 10 µM, first compound 0.01 µM) was 29.9%, the viability, T/C [11] was 24.4% and the viability, T/C [12] was 10.4%.

`C[C@@H](NC(=O)c1ncnc(N)c1Cl)c1ncc(C(=O)Nc2cc(C(F)(F)F)c(Cl)cn2)s1` + C#Cc1c(F)ccc2cc(O)cc(-c3ncc4c(N5CC6CCC(C5)N6)nc(OCC56CCCN5CC(F)C6)nc4c3F)c12 showed an IC50 (second compound 0.0316 µM) of 6700 nM, an IC50 (second compound 0.1 µM) of 5980 nM and an IC50 (second compound 0.316 µM) of 6760 nM. It also gave an IC50 (second compound 1 µM) of 6540 nM, an IC50 (second compound 3.16 µM) of 5020 nM and an IC50 (second compound 10 µM) of 358 nM. The viability, T/C [1] was 140%, the viability, T/C [2] was 112% and the viability, T/C (second compound 0.0316 µM, first compound 0.316 µM) was 104%. It also gave a viability, T/C (second compound 0.0316 µM, first compound 1 µM) of 88.3%, a viability, T/C (second compound 0.0316 µM, first compound 3.16 µM) of 63% and a viability, T/C (second compound 0.0316 µM, first compound 10 µM) of 41.3%. The viability, T/C [3] was 124%, the viability, T/C [4] was 126% and the viability, T/C (second compound 0.1 µM, first compound 0.316 µM) was 99.4%. The viability, T/C (second compound 0.1 µM, first compound 1 µM) was 88.3%, the viability, T/C (second compound 0.1 µM, first compound 3.16 µM) was 65.8% and the viability, T/C (second compound 0.1 µM, first compound 10 µM) was 37.7%. It also gave a viability, T/C [5] of 121%, a viability, T/C [6] of 125% and a viability, T/C (second compound 0.316 µM, first compound 0.316 µM) of 113%. For the same molecule, the viability, T/C (second compound 0.316 µM, first compound 1 µM) was 89.3%, the viability, T/C (second compound 0.316 µM, first compound 3.16 µM) was 66.3% and the viability, T/C (second compound 0.316 µM, first compound 10 µM) was 42%. The viability, T/C [7] was 126%, the viability, T/C [8] was 122% and the viability, T/C (second compound 1 µM, first compound 0.316 µM) was 115%. The viability, T/C (second compound 1 µM, first compound 1 µM) was 97.3%, the viability, T/C (second compound 1 µM, first compound 3.16 µM) was 63.4% and the viability, T/C (second compound 1 µM, first compound 10 µM) was 42%. It also gave a viability, T/C [9] of 127%, a viability, T/C [10] of 126% and a viability, T/C (second compound 3.16 µM, first compound 0.316 µM) of 108%. The viability, T/C (second compound 3.16 µM, first compound 1 µM) was 86.5%, the viability, T/C (second compound 3.16 µM, first compound 3.16 µM) was 64.1% and the viability, T/C (second compound 3.16 µM, first compound 10 µM) was 31.5%. For the same molecule, the viability, T/C [11] was 77.3%, the viability, T/C [12] was 70.7% and the viability, T/C (second compound 10 µM, first compound 0.316 µM) was 47.3%. For the same molecule, the viability, T/C (second compound 10 µM, first compound 1 µM) was 38.5%, the viability, T/C (second compound 10 µM, first compound 3.16 µM) was 27.4% and the viability, T/C (second compound 10 µM, first compound 10 µM) was 19%.
